Assays:
MRSA strain 3267 = test: FICI of F332 with antibiotics; assay type: cell-based, S. aureus
MRSA strain 2973 = test: FICI of F332 with antibiotics; assay type: cell-based, S. aureus
MRSA strain 774 = test: FICI of F332 with antibiotics; assay type: cell-based, S. aureus
MRSA strain 2895 = test: FICI of F332 with antibiotics; assay type: cell-based, S. aureus
MRSA strain 3589 = test: FICI of F332 with antibiotics; assay type: cell-based, S. aureus
MRSA strain 85 = test: FICI of F332 with antibiotics; assay type: cell-based, S. aureus
in vivo = settings: male, Sprague-Dawley, rat
Protocol: Compound F332 was further subjected to in vivo pharmacokinetic study. The UPLC-MS/MS system consists of an Acquity Waters UPLC interfaced with triple quadrupole mass spectrometer (Micromass model Quattro Ultima) equipped with an electrospray ionization source in positive mode. Chromatographic separation was done on ACQUITY UPLC BEH C18 […] (2.1×50 mm) column. The mobile phase consists of methanol+0.1% formic acid (solvent B) and Milli-Q water+0.1% formic acid (solvent A). Multiple reaction monitoring (MRM) was set monitoring the transitions for F332 [M+H]^+ at 299>142 m/z. The collision energy, cone voltage, source temperature, desolvation temperature and capillary voltage are 25, 30, 150° C., 350° C. and 3 Kv, respectively. The cone gas and desolvation gas was 150 L/Hr and 600 L/Hr, respectively.
Male Sprague-Dawley (SD) rats (body weight 250-280 g) were obtained from Centralised Animal Facilities, The Hong Kong Polytechnic University. Animals were kept in a temperature and humidity controlled environment with 12 hour light-dark cycle with standard diet and water. Animal experiment protocol was approved by the Animal Subjects Ethics Sub-Committee of The Hong Kong Polytechnic University. Right jugular vein cannulation was done one day in advance of the experiment. Animal were fasted overnight and had free access to water throughout the experiment. F332 was freshly prepared in 5% CremophorEL, 5% ethanol, 90% saline at a concentration of 2 mg/ml. F332 was prepared on the day of use and used for animal study within half an hour. In the current study, F332 was administered through passive oral feeding (oral) and intravenous (IV) injection. Blood samples (approx. 500 μL) were collected in heparinzied tubes (20 units of heparin salt/tube) via jugular vein at 5, 10, 30, 45, 60, 120, 240 and 420 minutes post administration for IV study. As for oral study, plasma samples were collected at 2, 10, 30, 45, 60, 120, 240, 480 and 600 minutes. Blood plasma samples were collected by centrifuged at 16,100 G for 10 minutes. For all blood plasma samples, 3 fold volume of methanol was added for protein precipitation. Supernatant was filtered by a syringe filter before UPLC-MS/MS analysis. Pharmacokinetic parameters in plasma were determined by non-compartmental pharmacokinetics data analysis using Pharmacokinetics Solutions 2.0 software (Summit Research Services, Montrose, Colo., USA). The pharmacokinetic parameters determined include maximal plasma concentration (Cmax), time to reach maximal plasma concentration (Tmax), mean residence time (MRT), absorption/distribution half life (t1/2α), elimination half life (t1/2β), volume of distribution (Vd), systemic clearance (CL) and the area under the concentration-time curve (AUC).

MRSA strain 757 = test: FICI of F332 with antibiotics; assay type: cell-based, S. aureus
Protocol: The bacterial strains used in this study were clinically isolated MRSA strains USA300#757 and #2960 which were obtained from our laboratory. Determination of the Fractional Inhibitory Concentration Index (FICI) was adopted by the Müller-Hinton broth (MHB) dilution method as previously described. Twelve serial two-fold dilutions of PC190723, F332 and F361 were prepared in the 96-well microplate with concentration ranging from 512 to 0.25 μg/mL. […] Lastly, the compounds and the β-lactams were mixed at a 1:1 ratio and subjected to two-fold dilution as described previously. Each microplate well contained 100 μL of MHB supplemented with compounds alone, β-lactams alone or the mixture of compounds and β-lactams. Overnight cultures of S. aureus in the Müller-Hinton broth was diluted to OD595 of 0.08-0.1 in saline and added in each of the microplate well. The plates were incubated at 37° C. for 20 h. All tests were performed in duplicate and the inhibition of bacterial growth was determined by visualization. The FICI of compounds and β-lactams were calculated as followed: FICI=(MIC of combination of compound and β-lactam/MIC of compound alone)+(MIC of combination of compound and β-lactam/MIC of β-lactam alone).

MRSA strain 256 = test: FICI of F332 with antibiotics; assay type: cell-based, S. aureus
MRSA strain 2919 = test: FICI of F332 with antibiotics; assay type: cell-based, S. aureus

In the case of CCCCCCCCCNc1ccc(F)c(C(N)=O)c1F [Compound F332, 2,6-difluoro-3-(nonylamino)benzamide], the “FICI of F332 combined with Amoxicillin” value (MRSA strain 3267) is reported as 0.25, the “FICI of F332 combined with Cefuroxime” value (MRSA strain 3267) is reported as 0.01 and the “FICI of F332 combined with Cloxacillin” value (MRSA strain 3267) is reported as 0.25. The “FICI of F332 combined with Meropenem” value (MRSA strain 3267) was 4.01, the “FICI of F332 combined with Meticillin” value (MRSA strain 3267) was 0.07 and the “FICI of F332 combined with Amoxicillin” value (MRSA strain 2973) was 0.08. For the same compound, the “FICI of F332 combined with Cefuroxime” value (MRSA strain 2973) was 0.53, the “FICI of F332 combined with Cloxacillin” value (MRSA strain 2973) was 0.07 and the “FICI of F332 combined with Meropenem” value (MRSA strain 2973) was 4.03. For the same compound, the “FICI of F332 combined with Meticillin” value (MRSA strain 2973) was 0.28, the “FICI of F332 combined with Amoxicillin” value (MRSA strain 774) was 0.03 and the “FICI of F332 combined with Cefuroxime” value (MRSA strain 774) was 0.01. For the same compound, the “FICI of F332 combined with Cloxacillin” value (MRSA strain 774) was 0.50, the “FICI of F332 combined with Meropenem” value (MRSA strain 774) was 0.13 and the “FICI of F332 combined with Meticillin” value (MRSA strain 774) was 0.26. The “FICI of F332 combined with Amoxicillin” value (MRSA strain 2895) was 1.06, the “FICI of F332 combined with Cefuroxime” value (MRSA strain 2895) was 0.31 and the “FICI of F332 combined with Cloxacillin” value (MRSA strain 2895) was 0.38. For the same compound, the “FICI of F332 combined with Meropenem” value (MRSA strain 2895) was 2.13, the “FICI of F332 combined with Meticillin” value (MRSA strain 2895) was 0.31 and the “FICI of F332 combined with Amoxicillin” value (MRSA strain 3589) was 1.06. For the same compound, the “FICI of F332 combined with Cefuroxime” value (MRSA strain 3589) was 0.25, the “FICI of F332 combined with Cloxacillin” value (MRSA strain 3589) was 0.31 and the “FICI of F332 combined with Meropenem” value (MRSA strain 3589) was 1.50. The “FICI of F332 combined with Meticillin” value (MRSA strain 3589) was 0.52, the “FICI of F332 combined with Amoxicillin” value (MRSA strain 85) was 0.04 and the “FICI of F332 combined with Cefuroxime” value (MRSA strain 85) was 0.25. For the same compound, the “FICI of F332 combined with Cloxacillin” value (MRSA strain 85) was 1.00, the “FICI of F332 combined with Meropenem” value (MRSA strain 85) was 4.01 and the “FICI of F332 combined with Meticillin” value (MRSA strain 85) was 0.50. For the same compound, the AUC (in vivo; iv, 1 mg/kg) was 1740 ng·h/mL, the AUC(0-t) (in vivo; iv, 1 mg/kg) was 699 ng·h/mL and the MRT (in vivo; iv, 1 mg/kg) was 8.08 h. The Vd (in vivo; iv, 1 mg/kg) was 4.81 L/kg, the clearance (in vivo; iv, 1 mg/kg) was 10 mL/min/kg and the half-life (in vivo; iv, 1 mg/kg, Absorption/distribution half life) was 0.25 h. For the same compound, the half-life (in vivo; iv, 1 mg/kg, Elimination half life) was 5.82 h, the AUC (in vivo; po, 50 mg/kg) was 10400 ng·h/mL and the AUC(0-t) (in vivo; po, 50 mg/kg) was 8980 ng·h/mL. The “CL (area)/kg” value (in vivo; po, 50 mg/kg) was 80 mL/min/kg, the Cmax (in vivo; po, 50 mg/kg) was 1920 ng/mL and the MRT (in vivo; po, 50 mg/kg) was 4.82 h. For the same compound, the Tmax (in vivo; po, 50 mg/kg) was 2 h, the “Vd (area)/kg” value (in vivo; po, 50 mg/kg) was 20.916 L/kg and the half-life (in vivo; po, 50 mg/kg) was 3 h. The half-life (in vivo; po, 50 mg/kg, Absorption/distribution half life) was 0.35 h, the bioavailability (in vivo; po, 50 mg/kg, Bioavailability) was roughly 12% and the “FICI of F332 combined with Amoxicillin” value (MRSA strain 757) was 0.27. For the same compound, the “FICI of F332 combined with Cefuroxime” value (MRSA strain 757) was 0.08, the “FICI of F332 combined with Cloxacillin” value (MRSA strain 757) was 0.13 and the “FICI of F332 combined with Meropenem” value (MRSA strain 757) was 1.06. For the same compound, the “FICI of F332 combined with Meticillin” value (MRSA strain 757) was 0.09, the “FICI of F332 combined with Amoxicillin” value (MRSA strain 256) was 0.08 and the “FICI of F332 combined with Cefuroxime” value (MRSA strain 256) was 0.01. For the same compound, the “FICI of F332 combined with Cloxacillin” value (MRSA strain 256) was 0.13, the “FICI of F332 combined with Meropenem” value (MRSA strain 256) was 4.01 and the “FICI of F332 combined with Meticillin” value (MRSA strain 256) was 0.04. The “FICI of F332 combined with Amoxicillin” value (MRSA strain 2919) was 0.51, the “FICI of F332 combined with Cefuroxime” value (MRSA strain 2919) was 0.25 and the “FICI of F332 combined with Cloxacillin” value (MRSA strain 2919) was 0.31. The “FICI of F332 combined with Meropenem” value (MRSA strain 2919) was 4.25 and the “FICI of F332 combined with Meticillin” value (MRSA strain 2919) was 0.38.
